Source: publication PMC6792352, “Limited Chemical Structural Diversity Found to Modulate Thyroid Hormone Receptor in the Tox21 Chemical Library” (Environmental Health Perspectives, 2019)
Where a name gives a salt, the structure may show the parent alone. Non-standard residues stand in square brackets, D forms with d. Residues, ends and D or L forms follow the SMILES beside them. pGlu = O=C1CC[C@@H](C(=O)O)N1; Thz = O=C(O)[C@@H]1CSCN1

Assay: in vitro
Details: rat, gh3-tre-luc cells

| Structure (SMILES) | CC50 at 24 h (AC50 (uM) modified / 1000) [µM] | further results |
| --- | --- | --- |
| O=C1CC[C@@H](C(=O)N2CSC[C@H]2C(=O)O)N1 [Pidotimod] ([pGlu]-[Thz]-OH) | > 50 | – |
| N#CCCCl [3-Chloropropionitrile] | > 90 | – |
| O=C(O)c1ccc2[nH]cc(CCCCN3CC=C(c4ccccc4)CC3)c2c1 [Carmoxirole] | > 50 | – |
| CC(C)(C)C1CCC(O)CC1 (centres unmarked) [4-tert-Butylcyclohexanol] | > 90 | – |
| CCCCCCCCCCOc1cc2c(O)c(C(=O)OCC)cnc2cc1OCC [Decoquinate] | > 50 | – |
| CSc1nc(NC2CC2)nc(NC(C)(C)C)n1 [Cybutryne] | > 90 | – |
| CC(C)(C)C(=O)OCOC(=O)[C@@H]1N2C(=O)C[C@H]2S(=O)(=O)C1(C)C [Pivoxil Sulbactam] | > 50 | – |
| CN(Cc1cc(Br)cc(Br)c1N)C1CCCCC1 [Bromhexine hydrochloride] | 42.9 | – |
| CC(=O)O[C@H]1C[C@H](O[C@H]2[C@@H](O)C[C@H](O[C@H]3[C@@H](O)C[C@H](O[C@H]4CC[C@@]5(C)[C@H](CC[C@@H]6[C@@H]5CC[C@]5(C)[C@@H](C7=CC(=O)OC7)[C@@H](O)C[C@]65O)C4)O[C@@H]3C)O[C@@H]2C)O[C@H](C)[C@H]1O[C@@H]1O[C@H](CO)[C@@H](O)[C@H](O)[C@H]1O [Lanatoside B] | > 50 | – |
| CC1=C(CC(=O)O)c2cc(F)ccc2/C1=C\c1ccc([S+](C)[O-])cc1 (centres unmarked) [Sulindac] | > 90 | – |
| Cn1nnc2c(C(N)=O)ncn2c1=O [Temozolomide] | > 50 | – |
| C1CNCCN1 [Piperazine] | > 50 | – |
| C=CCCCCCCCCCC [1-Dodecene] | > 90 | – |
| O=C(O)/C=C/C(=O)O [Fumaric acid] | > 100 | – |
| CCCC(C)(COC(N)=O)COC(=O)NC1CC1 (centres unmarked) [Lorbamate] | – | CC50 at 24 h (AC50 (uM) modified / 1000, Tox21_110001=Tox21_111921, viability, 1 nM T3 present, 24 h): > 50 µM |
| Cc1c(C)n(CCN(C)C)c2ccc(C(=O)OCCN(C)C)cc12 [Amindocate] | 34.1 | – |
| CCCCCC1C(=O)CCC1CC(=O)OC (centres unmarked) [Methyl dihydrojasmonate] | > 90 | – |
| O=C(CC(=O)c1ccccc1)c1ccccc1 [1,3-Diphenyl-1,3-propanedione] | > 100 | – |
| CCCCC[C@H](O)/C=C/[C@H]1[C@H](O)CC(=O)[C@@H]1C/C=C\CCCC(=O)O [Dinoprostone] | > 50 | – |
| C1CCCNCC1 [Hexamethyleneimine] | > 100 | – |
| C1CCC(NC2CCCCC2)CC1 [Dicyclohexylamine] | – | CC50 at 24 h (AC50 (uM) modified / 1000, Tox21_110001=Tox21_111044, viability, 1 nM T3 present, 24 h): > 50 µM; CC50 at 24 h (AC50 (uM) modified / 1000, Tox21_110001=Tox21_201771, viability, 1 nM T3 present, 24 h): > 90 µM |
| OCCN(CCO)CCN(CCO)CCO [2,2',2'',2'''-(1,2-Ethanediyldinitrilo)tetrakisethanol] | > 90 | – |
| O=[N+]([O-])c1c(Cl)cc(Cl)cc1Cl [2,4,6-Trichloronitrobenzene] | > 90 | – |

| Structure (SMILES) | CC50 at 24 h (AC50 (uM) modified / 1000) [µM] | further results |
| --- | --- | --- |
| C1CCN2C[C@@H]3C[C@@H](CN4CCCC[C@@H]34)[C@H]2C1 [Sparteine] | > 20 | – |
| CC[C@@H]1/C=C(\C)C[C@H](C)C[C@H](OC)[C@H]2O[C@@](O)(C(=O)C(=O)N3CCCC[C@H]3C(=O)O[C@H](/C(C)=C/[C@@H]3CC[C@H](Cl)[C@H](OC)C3)[C@H](C)[C@@H](O)CC1=O)[C@H](C)C[C@@H]2OC [Pimecrolimus] | > 50 | – |
| CC1(C)S[C@@H]2[C@H](NC(=O)C(c3ccccc3)S(=O)(=O)O)C(=O)N2[C@H]1C(=O)O (some centres unmarked) [Sulbenicillin disodium] | > 50 | – |
| CCCCCCC(=O)O[C@H]1CC[C@H]2[C@@H]3CC[C@H]4CC(=O)C=C(C)[C@]4(C)[C@H]3CC[C@]12C [Methenolone enanthate] | – | CC50 at 24 h (AC50 (uM) modified / 1000, Tox21_110001=Tox21_112600, viability, 1 nM T3 present, 24 h): > 50 µM |
| NCCc1ccc(O)cc1 [Tyramine hydrochloride] | > 90 | – |
| Cl/C(=C\n1cncn1)c1ccc(Cl)cc1Cl [Loreclezole hydrochloride] | > 50 | – |
| CC1(C)C(/C=C/C=C/C=C/C=C2\N(CCCCS(=O)(=O)O)c3ccc4ccccc4c3C2(C)C)=[N+](CCCCS(=O)(=O)[O-])c2ccc3ccccc3c21 [Indocyanine green] | 19.5 | – |
| C=CC(=O)OCCCCCCCC [Octyl prop-2-enoate] | > 90 | – |
| Cc1c(Cl)cccc1Cl [2,6-Dichlorotoluene] | > 90 | – |
| CCC(=O)c1ccccc1 [1-Phenylpropan-1-one] | – | CC50 at 24 h (AC50 (uM) modified / 1000, Tox21_110001=Tox21_302025, viability, 1 nM T3 present, 24 h): > 90 µM |
| CC(C)COC(=O)C(C)C [Isobutyl isobutyrate] | > 90 | – |
| CO[C@H]1/C=C/O[C@@]2(C)Oc3c(C)c(O)c4c(O)c(cc(O)c4c3C2=O)NC(=O)/C(C)=C\C=C\[C@H](C)[C@H](O)[C@@H](C)[C@@H](O)[C@@H](C)[C@H](OC(C)=O)[C@@H]1C [Rifamycin SV sodium salt] | 50.2 | – |
| CNc1cc(OC)c(C(=O)N[C@@H]2CCN(Cc3ccccc3)[C@@H]2C)cc1Cl (racemic) [Nemonapride] | > 50 | – |
| COc1ccc(Nc2ccccc2)c(C)c1 [4-Methoxy-2-methyl-N-phenylaniline] | > 90 | – |
| CCCCCCCCCOC(=O)c1ccccc1C(=O)OCCCCCCCCC [Dinonyl phthalate] | > 90 | – |
| CC1NCCOC1c1ccccc1 (centres unmarked) [Phenmetrazine hydrochloride] | – | CC50 at 24 h (AC50 (uM) modified / 1000, Tox21_110001=Tox21_112166, viability, 1 nM T3 present, 24 h): > 50 µM |
| CCNc1nc(Cl)nc(NCC)n1 [Simazine] | > 90 | – |
| CCN(CC)C(=O)C(Cl)=C(C)OP(=O)(OC)OC [Phosphamidon] | – | CC50 at 24 h (AC50 (uM) modified / 1000, Tox21_110001=Tox21_112409, viability, 1 nM T3 present, 24 h): > 50 µM; CC50 at 24 h (AC50 (uM) modified / 1000, Tox21_110001=Tox21_202100, viability, 1 nM T3 present, 24 h): > 90 µM |
| CCCCCCCC/C=C\CCCCCCCCO [(9Z)-Octadec-9-en-1-ol] | > 90 | – |
| C=CCCC(=O)/C=C/C1C(C)=CCCC1(C)C (centres unmarked) [Allyl Ionone] | 80.7 | – |
| O=C(c1ccc(O)cc1)c1ccc(O)cc1 [4,4'-Dihydoxybenzophenone] | > 90 | – |
| CC(N)CCCC(C)(C)O (centres unmarked) [Heptaminol hydrochloride] | > 50 | – |
| CC(=O)C(Cl)(Cl)Cl [1,1,1-Trichloropropanone] | 13.3 | – |

| Structure (SMILES) | CC50 at 24 h (AC50 (uM) modified / 1000) [µM] | further results |
| --- | --- | --- |
| CC(=O)NCCCS(=O)(=O)O [Acamprosate calcium] | > 40 | – |
| C[C@@](Cc1ccc(O)c(O)c1)(NN)C(=O)O [Carbidopa] | > 50 | – |
| CC(C)CCCCCCCCCCCCCCC(=O)O [Isooctadecanoic acid] | > 90 | – |
| Cc1ccc(Nc2c(F)cccc2Cl)c(CC(=O)O)c1 [Lumiracoxib] | > 50 | – |
| Cc1ccc2cc(C)ccc2c1 [2,6-Dimethylnaphthalene] | – | CC50 at 24 h (AC50 (uM) modified / 1000, Tox21_110001=Tox21_200260, viability, 1 nM T3 present, 24 h): > 90 µM |
| COc1ccc(C2CNC(=O)C2)cc1OC1CCCC1 (centres unmarked) [Rolipram] | > 20 | – |
| Cc1cc(CC(C)CC(C)(C)C)n(O)c(=O)c1 (centres unmarked) [Piroctone olamine] | 33 | – |
| CC(=O)OCc1ccc2c(c1)OCO2 [Piperonyl acetate] | > 90 | – |
| CC/C=C\CCOC(=O)CC [(3Z)-Hex-3-en-1-yl propanoate] | > 90 | – |
| Cl[Si](Cl)(c1ccccc1)c1ccccc1 [Dichlorodiphenylsilane] | > 90 | – |
| CN(C)CCCNCCCN [Dimethyldipropylenetriamine] | > 90 | – |
| CN(C)CCn1nnnc1SCC1=C(C(=O)O)N2C(=O)[C@@H](NC(=O)Cc3csc(N)n3)[C@H]2SC1 [Cefotiam hydrochloride] | > 20 | – |
| Clc1cc(Cl)cc(Cl)c1 [1,3,5-Trichlorobenzene] | > 90 | – |
| CCCC(=O)C(CC)Sc1ccoc1C (centres unmarked) [3-(2-Methyl-3-furylthio)-4-heptanone] | > 90 | – |
| C1CN(P2(N3CC3)=NP(N3CC3)(N3CC3)=NP(N3CC3)(N3CC3)=N2)CCO1 (centres unmarked) [Fotretamine] | > 50 | – |
| c1ccc(CC2=NCCN2)cc1 [Tolazoline hydrochloride] | > 20 | – |
| CO/N=C(\C(=O)N[C@@H]1C(=O)N2C(C(=O)O)=C(C[N+]3(C)CCCC3)CS[C@H]12)c1csc(N)n1 [Cefepime chloride hydrochloride hydrate] | > 50 | – |
| CC(=O)CCc1ccc(O)cc1 [4-(4-Hydroxyphenyl)butan-2-one] | > 90 | – |
| Cc1nc(-c2ccc(OCC(C)C)c(C#N)c2)sc1C(=O)O [Febuxostat] | > 50 | – |
| CCCCNC(=N)NC(=N)N [Buformin] | > 50 | – |
| CC(C)OC(=O)OCOP(=O)(CO[C@H](C)Cn1cnc2c(N)ncnc21)OCOC(=O)OC(C)C [Tenofovir disoproxil fumarate] | > 50 | – |
| CCCCCCOc1cc(C)c(O)c(C)c1C [1-O-Hexyl-2,3,5-trimethylhydroquinone] | 42.6 | – |
| CNC1CCCN(c2c(F)cc3c(=O)c(C(=O)O)cn(C4CC4)c3c2OC)C1 (centres unmarked) [Balofloxacin] | > 50 | – |
